{"source": "the NIST ThermoML archive (doi:10.1016/j.tca.2006.01.008)", "key": {"[1]": {"test": "refractive index (Na D-line) (dimensionless)", "conditions": "298.15 K; 101.33 kPa; Liquid; Standard Abbe refractometry"}, "[2]": {"conditions": "298.15 K; 101.33 kPa; Liquid; Vibrating tube method"}, "[3]": {"test": "xn = mol fraction of the nth substance listed", "conditions": "298.15 K, 101 kPa, Liquid, Vibrating tube method"}, "[4]": {"test": "refractive index (Na D-line) (dimensionless); xn = mol fraction of the nth substance listed", "conditions": "298.15 K, 101 kPa, Liquid, Standard Abbe refractometry"}}, "note": "Numbers after ± are expanded uncertainties."}
{"molecule": "CC(C)=O", "note": "[acetone]", "values": [{"measurement": "refractive index", "setting": "[1]", "result": "1.356 ± 0.0004"}, {"measurement": "mass density", "setting": "[2]", "result": "784.9 ± 0.27", "unit": "kg/m3"}]}
{"molecule": "CC(C)=O", "note": "[acetone] + CCCCCC", "values": [{"measurement": "mass density", "setting": "[3]; x1 = 0.0504", "result": "657.2 ± 0.3", "unit": "kg/m3"}, {"measurement": "mass density", "setting": "[3]; x1 = 0.0994", "result": "659.7 ± 0.3", "unit": "kg/m3"}, {"measurement": "mass density", "setting": "[3]; x1 = 0.1511", "result": "662.9 ± 0.3", "unit": "kg/m3"}, {"measurement": "mass density", "setting": "[3]; x1 = 0.1999", "result": "666.3 ± 0.3", "unit": "kg/m3"}, {"measurement": "mass density", "setting": "[3]; x1 = 0.2497", "result": "670.1 ± 0.3", "unit": "kg/m3"}, {"measurement": "mass density", "setting": "[3]; x1 = 0.3006", "result": "674.4 ± 0.3", "unit": "kg/m3"}, {"measurement": "mass density", "setting": "[3]; x1 = 0.3518", "result": "679 ± 0.3", "unit": "kg/m3"}, {"measurement": "mass density", "setting": "[3]; x1 = 0.4006", "result": "683.7 ± 0.3", "unit": "kg/m3"}, {"measurement": "mass density", "setting": "[3]; x1 = 0.4476", "result": "688.7 ± 0.3", "unit": "kg/m3"}, {"measurement": "mass density", "setting": "[3]; x1 = 0.4995", "result": "694.5 ± 0.3", "unit": "kg/m3"}, {"measurement": "mass density", "setting": "[3]; x1 = 0.5498", "result": "700.7 ± 0.3", "unit": "kg/m3"}, {"measurement": "mass density", "setting": "[3]; x1 = 0.5976", "result": "707 ± 0.3", "unit": "kg/m3"}, {"measurement": "mass density", "setting": "[3]; x1 = 0.6479", "result": "714.1 ± 0.3", "unit": "kg/m3"}, {"measurement": "mass density", "setting": "[3]; x1 = 0.697", "result": "721.7 ± 0.3", "unit": "kg/m3"}, {"measurement": "mass density", "setting": "[3]; x1 = 0.7503", "result": "730.5 ± 0.3", "unit": "kg/m3"}, {"measurement": "mass density", "setting": "[3]; x1 = 0.7998", "result": "739.4 ± 0.3", "unit": "kg/m3"}, {"measurement": "mass density", "setting": "[3]; x1 = 0.8499", "result": "749.1 ± 0.3", "unit": "kg/m3"}, {"measurement": "mass density", "setting": "[3]; x1 = 0.8979", "result": "759.3 ± 0.3", "unit": "kg/m3"}, {"measurement": "mass density", "setting": "[3]; x1 = 0.9507", "result": "771.7 ± 0.3", "unit": "kg/m3"}, {"measurement": "refractive index", "setting": "[4]; x1 = 0.0504", "result": "1.3709 ± 0.0004"}, {"measurement": "refractive index", "setting": "[4]; x1 = 0.0994", "result": "1.3699 ± 0.0004"}, {"measurement": "refractive index", "setting": "[4]; x1 = 0.1511", "result": "1.3688 ± 0.0004"}, {"measurement": "refractive index", "setting": "[4]; x1 = 0.1999", "result": "1.3679 ± 0.0004"}, {"measurement": "refractive index", "setting": "[4]; x1 = 0.2497", "result": "1.3668 ± 0.0004"}, {"measurement": "refractive index", "setting": "[4]; x1 = 0.3006", "result": "1.366 ± 0.0004"}, {"measurement": "refractive index", "setting": "[4]; x1 = 0.3518", "result": "1.3651 ± 0.0004"}, {"measurement": "refractive index", "setting": "[4]; x1 = 0.4006", "result": "1.3643 ± 0.0004"}, {"measurement": "refractive index", "setting": "[4]; x1 = 0.4476", "result": "1.3635 ± 0.0004"}, {"measurement": "refractive index", "setting": "[4]; x1 = 0.4995", "result": "1.3627 ± 0.0004"}, {"measurement": "refractive index", "setting": "[4]; x1 = 0.5498", "result": "1.3618 ± 0.0004"}, {"measurement": "refractive index", "setting": "[4]; x1 = 0.5976", "result": "1.3611 ± 0.0004"}, {"measurement": "refractive index", "setting": "[4]; x1 = 0.6479", "result": "1.3603 ± 0.0004"}, {"measurement": "refractive index", "setting": "[4]; x1 = 0.697", "result": "1.3595 ± 0.0004"}, {"measurement": "refractive index", "setting": "[4]; x1 = 0.7503", "result": "1.3587 ± 0.0004"}, {"measurement": "refractive index", "setting": "[4]; x1 = 0.7998", "result": "1.358 ± 0.0004"}, {"measurement": "refractive index", "setting": "[4]; x1 = 0.8499", "result": "1.3572 ± 0.0004"}, {"measurement": "refractive index", "setting": "[4]; x1 = 0.8979", "result": "1.3568 ± 0.0004"}, {"measurement": "refractive index", "setting": "[4]; x1 = 0.9507", "result": "1.3561 ± 0.0004"}]}
{"molecule": "CC(C)=O", "note": "[acetone] + O", "values": [{"measurement": "mass density", "setting": "[3]; x1 = 0.0502", "result": "977 ± 0.1", "unit": "kg/m3"}, {"measurement": "mass density", "setting": "[3]; x1 = 0.0993", "result": "959.3 ± 0.1", "unit": "kg/m3"}, {"measurement": "mass density", "setting": "[3]; x1 = 0.1502", "result": "942.2 ± 0.1", "unit": "kg/m3"}, {"measurement": "mass density", "setting": "[3]; x1 = 0.1996", "result": "926.6 ± 0.1", "unit": "kg/m3"}, {"measurement": "mass density", "setting": "[3]; x1 = 0.2496", "result": "911.8 ± 0.1", "unit": "kg/m3"}, {"measurement": "mass density", "setting": "[3]; x1 = 0.3007", "result": "897.6 ± 0.2", "unit": "kg/m3"}, {"measurement": "mass density", "setting": "[3]; x1 = 0.3507", "result": "884.8 ± 0.2", "unit": "kg/m3"}, {"measurement": "mass density", "setting": "[3]; x1 = 0.4003", "result": "873.1 ± 0.2", "unit": "kg/m3"}, {"measurement": "mass density", "setting": "[3]; x1 = 0.4509", "result": "862.1 ± 0.2", "unit": "kg/m3"}, {"measurement": "mass density", "setting": "[3]; x1 = 0.4992", "result": "852.5 ± 0.2", "unit": "kg/m3"}, {"measurement": "mass density", "setting": "[3]; x1 = 0.5489", "result": "843.5 ± 0.2", "unit": "kg/m3"}, {"measurement": "mass density", "setting": "[3]; x1 = 0.599", "result": "835 ± 0.2", "unit": "kg/m3"}, {"measurement": "mass density", "setting": "[3]; x1 = 0.6506", "result": "827 ± 0.2", "unit": "kg/m3"}, {"measurement": "mass density", "setting": "[3]; x1 = 0.6996", "result": "819.9 ± 0.2", "unit": "kg/m3"}, {"measurement": "mass density", "setting": "[3]; x1 = 0.7014", "result": "819.6 ± 0.2", "unit": "kg/m3"}, {"measurement": "mass density", "setting": "[3]; x1 = 0.7467", "result": "813.4 ± 0.2", "unit": "kg/m3"}, {"measurement": "mass density", "setting": "[3]; x1 = 0.8011", "result": "806.2 ± 0.2", "unit": "kg/m3"}, {"measurement": "mass density", "setting": "[3]; x1 = 0.8015", "result": "806.3 ± 0.2", "unit": "kg/m3"}, {"measurement": "mass density", "setting": "[3]; x1 = 0.846", "result": "800.8 ± 0.2", "unit": "kg/m3"}, {"measurement": "mass density", "setting": "[3]; x1 = 0.8969", "result": "794.9 ± 0.2", "unit": "kg/m3"}, {"measurement": "mass density", "setting": "[3]; x1 = 0.9005", "result": "794.5 ± 0.2", "unit": "kg/m3"}, {"measurement": "mass density", "setting": "[3]; x1 = 0.9451", "result": "789.9 ± 0.2", "unit": "kg/m3"}, {"measurement": "refractive index", "setting": "[4]; x1 = 0.0502", "result": "1.3422 ± 0.0004"}, {"measurement": "refractive index", "setting": "[4]; x1 = 0.0993", "result": "1.3499 ± 0.0004"}, {"measurement": "refractive index", "setting": "[4]; x1 = 0.1502", "result": "1.3549 ± 0.0004"}, {"measurement": "refractive index", "setting": "[4]; x1 = 0.1996", "result": "1.3583 ± 0.0004"}, {"measurement": "refractive index", "setting": "[4]; x1 = 0.2496", "result": "1.3604 ± 0.0004"}, {"measurement": "refractive index", "setting": "[4]; x1 = 0.3007", "result": "1.3616 ± 0.0004"}, {"measurement": "refractive index", "setting": "[4]; x1 = 0.3507", "result": "1.3621 ± 0.0004"}, {"measurement": "refractive index", "setting": "[4]; x1 = 0.4003", "result": "1.3623 ± 0.0004"}, {"measurement": "refractive index", "setting": "[4]; x1 = 0.4509", "result": "1.3621 ± 0.0004"}, {"measurement": "refractive index", "setting": "[4]; x1 = 0.4992", "result": "1.3618 ± 0.0004"}, {"measurement": "refractive index", "setting": "[4]; x1 = 0.5489", "result": "1.3614 ± 0.0004"}, {"measurement": "refractive index", "setting": "[4]; x1 = 0.599", "result": "1.3609 ± 0.0004"}, {"measurement": "refractive index", "setting": "[4]; x1 = 0.6506", "result": "1.3603 ± 0.0004"}, {"measurement": "refractive index", "setting": "[4]; x1 = 0.6996", "result": "1.3602 ± 0.0004"}, {"measurement": "refractive index", "setting": "[4]; x1 = 0.7014", "result": "1.3597 ± 0.0004"}, {"measurement": "refractive index", "setting": "[4]; x1 = 0.7467", "result": "1.3591 ± 0.0004"}, {"measurement": "refractive index", "setting": "[4]; x1 = 0.8011", "result": "1.3592 ± 0.0004"}, {"measurement": "refractive index", "setting": "[4]; x1 = 0.8015", "result": "1.3583 ± 0.0004"}, {"measurement": "refractive index", "setting": "[4]; x1 = 0.846", "result": "1.3577 ± 0.0004"}, {"measurement": "refractive index", "setting": "[4]; x1 = 0.8969", "result": "1.3569 ± 0.0004"}, {"measurement": "refractive index", "setting": "[4]; x1 = 0.9005", "result": "1.3572 ± 0.0004"}, {"measurement": "refractive index", "setting": "[4]; x1 = 0.9451", "result": "1.3564 ± 0.0004"}]}
{"molecule": "CCCCCC", "note": "[hexane]", "values": [{"measurement": "refractive index", "setting": "[1]", "result": "1.3724 ± 0.0004"}, {"measurement": "mass density", "setting": "[2]", "result": "655.1 ± 0.3", "unit": "kg/m3"}]}
{"molecule": "O", "note": "[water]", "values": [{"measurement": "refractive index", "setting": "[1]", "result": "1.3325 ± 0.0004"}]}
